Consider nine compounds from patent US20250002473A1, “QUINOXALINE DERIVED SULFONAMIDES WITH EGFR DEGRADATION ACTIVITIES AND THEIR USES THEREOF” (Accutar Biotechnology Inc., priority 2023, published 2025).

Like-named read-outs stand apart in the source and are kept apart here.

As a reminder, the DC50 is the concentration giving 50% degradation. The term GI50 denotes the concentration giving 50% growth inhibition.

Common to all, as to type: cell-based
One assay concerns the target T1, A431 (EGFR_WT) (Homo sapiens, UniProt P00533).
T1 construct: endogenous in cells; host or cells: A431, NCI-H2073, NCI-H292
The experiment in a line: EGFR degradation assay (western blot), A431 cells. The following applies: compounds 24 h, western blot, read-out: A431 DC50. Here is the method:
A431 (EGFR_WT), NCl-H2073 (EGFR_WT), NCl-H292 (EGFR_WT), BaF3_YVAM (Her2_A775insYVAM), BaF3_SVD (EGFR_D770insSVD), BaF3_ASV (EGFR_A776inASV), or BaF3_DTC (EGFR_Exon19del/T790M/C797S) cells were seeded in a 24-well plate at a density of 4×10^5 cells per well for EGFR WT cells and 8× cells per well for EGFR or Her2 mutant cells, and the plates were incubated overnight. The cells were treated with the desired compounds for 24 h. The culture medium was removed, and 100 μL of RIPA buffer (Beyotime, P0013B) containing 1% Protease Inhibitor Cocktail (Bimake, B14001), 1% Phosphatase Inhibitor Cocktail 2 (Sigma, P5726), and 1% Phosphatase Inhibitor Cocktail 3 (Sigma, P0044) were added to lyse the cells. Then, the cell lysates were transferred to 1.5 mL microcentrifuge tubes and centrifuged at 12,000 rpm and 4° C. for 30 min. The supernatants were transferred into new tubes, and the protein concentration was determined using the BCA protein quantification method. All samples were diluted to the same concentration using RIPA buffer, loading buffer was added, samples were denatured, and 15 μg of protein per lane was loaded onto a SurePAGE 4-20% Bis-Tris gel. Samples were separated via electrophoresis in MOPS running buffer at 180 V for 100 min. Then, proteins were transferred onto PVDF membranes using the MiniBlot™ Electrophoretic Transfer Cell Device (Beyotime, E6050). The membrane was blocked using block buffer (LI-COR 927-60001) to prevent non-specific binding. The membrane was incubated with primary antibodies (1:500 dilution, EGFR-CST4405, 1:2000 dilution, Tubulin-ABclonal #AC021) at 4° C. overnight. The membrane was washed three times with 1× TBST buffer for 15 min each. The membrane was incubated with secondary antibodies IRDye 680RD Goat anti-Rabbit IgG Secondary Antibody (1:2000 dilution, LI-COR 926-68071) and IRDye 800CW Goat anti-Mouse IgG Secondary Antibody (1:2000 dilution, LI-COR 926-32210). Finally, the membrane was washed again with 1× TBST buffer 3 times. Fluorescence was detected using the Odyssey CLx Imaging System, and the data were analyzed with Empiria Studio Software and GraphPad Prism 9. Table 4 and Table 5 list the degradation results, where the degradation potency is represented by DC50, the concentration of compounds to cause the degradation of 50% of the corresponding proteins. FIGS. 45-49 show western blots illustrating the EGFR degradative activity of exemplary Compound of the present disclosure and a comparator Compound A in different cell lines 24 h after administration. The Compound referred herein as Compound A is disclosed in WO 2022/171123 A1 (see, compound 133, page 46; published Aug. 18, 2022). WO 2022/171123 A1 discloses phosphine oxide derived molecules with EGFR degradation activity.
(In general: A western blot detects proteins with antibodies after separation by electrophoresis.)

The next assay relates to BaF3_ASV. The experiment in a line: Cell growth inhibition assay (CellTiter-Glo), BaF3_ASV. The following applies: 72 h. (In general: Cellular ATP, detected with luciferase, serves as a proxy for viable cell number.)
The next assay has as its system A431. The experiment in a line: Cell growth inhibition assay (CellTiter-Glo), A431. Particulars: Homo sapiens, A-431, 72 h, Table 6; A431 cells, three days, CellTiter-Glo; read-out: A431 GI50. The essentials: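 This growth inhibition assay reports GI50, the compound concentration producing 50% inhibition of cell growth relative to DMSO. Seeded cells (90 μL medium per well, 96-well Corning 3610 plates, overnight at 37° C.) received 10 μL of compound diluted 1:100 from a 1,000× DMSO stock. Luminescence was measured on Envision (PerkinElmer) and analyzed in GraphPad Prism 9.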

The next assay relates to BaF3_DTC. The experiment in a line: Cell growth inhibition assay (CellTiter-Glo), BaF3_DTC. Particulars: 72 h; Table 6; BaF3_DTC cells, three days, CellTiter-Glo; read-out: BaF3_DTC GI50.
The subject of assay [1] is BaF3_DTC (EGFR_Exon19del/T790M/C797S). In words: EGFR degradation assay (western blot), BaF3_DTC cells. The following applies: BaF3_DTC cells (EGFR_Exon19del/T790M/C797S), compounds 24 h, western blot; read-out: BaF3_DTC DC50. The essentials:
(§1)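 Cells seeded overnight, then exposed to compounds for 24 h; lysates run on western blot, EGFR probed with tubulin loading control and fluorescent secondary detection. DC50 = concentration giving 50% EGFR degradation.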

Assay [2] deals with T2, BaF3_ASV (EGFR_A776inASV) (Homo sapiens, UniProt P00533, DUP767-769).
T2 construct: expressed in transfected cells; host or cells: Ba/F3 (engineered)
In words: EGFR degradation assay (western blot), BaF3_ASV cells. The following applies: BaF3_ASV cells, compounds 24 h, western blot; read-out: BaF3_ASV DC50. The procedure, abridged: as §1

Where [3] appears, read: Table 6, BaF3_ASV cells, three days, CellTiter-Glo, read-out: BaF3_ASV GI50.

T1 sequence (P00533 25-1210): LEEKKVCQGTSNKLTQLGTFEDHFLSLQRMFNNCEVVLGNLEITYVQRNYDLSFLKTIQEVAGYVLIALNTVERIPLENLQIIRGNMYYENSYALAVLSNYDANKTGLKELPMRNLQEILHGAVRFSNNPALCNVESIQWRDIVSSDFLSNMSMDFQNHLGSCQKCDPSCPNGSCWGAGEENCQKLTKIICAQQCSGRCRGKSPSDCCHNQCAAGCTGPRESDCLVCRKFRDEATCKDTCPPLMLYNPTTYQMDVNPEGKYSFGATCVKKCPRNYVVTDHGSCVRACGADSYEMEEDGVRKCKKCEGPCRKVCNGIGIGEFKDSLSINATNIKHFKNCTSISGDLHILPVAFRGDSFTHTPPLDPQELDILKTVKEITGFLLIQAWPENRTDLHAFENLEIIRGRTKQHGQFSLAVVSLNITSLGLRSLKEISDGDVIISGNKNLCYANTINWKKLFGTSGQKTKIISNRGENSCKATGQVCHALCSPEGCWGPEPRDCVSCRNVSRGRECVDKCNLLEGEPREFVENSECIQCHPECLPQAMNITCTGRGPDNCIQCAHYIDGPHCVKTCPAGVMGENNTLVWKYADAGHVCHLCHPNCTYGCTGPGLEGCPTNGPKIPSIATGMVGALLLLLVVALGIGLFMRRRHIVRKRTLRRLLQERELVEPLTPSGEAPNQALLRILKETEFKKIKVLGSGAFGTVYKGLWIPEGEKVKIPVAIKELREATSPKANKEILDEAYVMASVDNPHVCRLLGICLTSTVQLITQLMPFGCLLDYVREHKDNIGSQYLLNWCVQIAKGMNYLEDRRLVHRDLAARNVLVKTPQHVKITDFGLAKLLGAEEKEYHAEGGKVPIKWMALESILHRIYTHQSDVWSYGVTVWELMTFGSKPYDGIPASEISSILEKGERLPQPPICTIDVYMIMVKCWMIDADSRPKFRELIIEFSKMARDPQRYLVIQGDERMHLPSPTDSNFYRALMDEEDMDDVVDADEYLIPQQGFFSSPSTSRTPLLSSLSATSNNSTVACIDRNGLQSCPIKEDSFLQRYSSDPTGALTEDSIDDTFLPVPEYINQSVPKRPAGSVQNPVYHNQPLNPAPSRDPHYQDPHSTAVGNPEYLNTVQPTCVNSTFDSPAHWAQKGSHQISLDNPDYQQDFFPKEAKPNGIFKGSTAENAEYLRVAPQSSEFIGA
T2 sequence (P00533 with tags, fused parts or gaps DUP767-769): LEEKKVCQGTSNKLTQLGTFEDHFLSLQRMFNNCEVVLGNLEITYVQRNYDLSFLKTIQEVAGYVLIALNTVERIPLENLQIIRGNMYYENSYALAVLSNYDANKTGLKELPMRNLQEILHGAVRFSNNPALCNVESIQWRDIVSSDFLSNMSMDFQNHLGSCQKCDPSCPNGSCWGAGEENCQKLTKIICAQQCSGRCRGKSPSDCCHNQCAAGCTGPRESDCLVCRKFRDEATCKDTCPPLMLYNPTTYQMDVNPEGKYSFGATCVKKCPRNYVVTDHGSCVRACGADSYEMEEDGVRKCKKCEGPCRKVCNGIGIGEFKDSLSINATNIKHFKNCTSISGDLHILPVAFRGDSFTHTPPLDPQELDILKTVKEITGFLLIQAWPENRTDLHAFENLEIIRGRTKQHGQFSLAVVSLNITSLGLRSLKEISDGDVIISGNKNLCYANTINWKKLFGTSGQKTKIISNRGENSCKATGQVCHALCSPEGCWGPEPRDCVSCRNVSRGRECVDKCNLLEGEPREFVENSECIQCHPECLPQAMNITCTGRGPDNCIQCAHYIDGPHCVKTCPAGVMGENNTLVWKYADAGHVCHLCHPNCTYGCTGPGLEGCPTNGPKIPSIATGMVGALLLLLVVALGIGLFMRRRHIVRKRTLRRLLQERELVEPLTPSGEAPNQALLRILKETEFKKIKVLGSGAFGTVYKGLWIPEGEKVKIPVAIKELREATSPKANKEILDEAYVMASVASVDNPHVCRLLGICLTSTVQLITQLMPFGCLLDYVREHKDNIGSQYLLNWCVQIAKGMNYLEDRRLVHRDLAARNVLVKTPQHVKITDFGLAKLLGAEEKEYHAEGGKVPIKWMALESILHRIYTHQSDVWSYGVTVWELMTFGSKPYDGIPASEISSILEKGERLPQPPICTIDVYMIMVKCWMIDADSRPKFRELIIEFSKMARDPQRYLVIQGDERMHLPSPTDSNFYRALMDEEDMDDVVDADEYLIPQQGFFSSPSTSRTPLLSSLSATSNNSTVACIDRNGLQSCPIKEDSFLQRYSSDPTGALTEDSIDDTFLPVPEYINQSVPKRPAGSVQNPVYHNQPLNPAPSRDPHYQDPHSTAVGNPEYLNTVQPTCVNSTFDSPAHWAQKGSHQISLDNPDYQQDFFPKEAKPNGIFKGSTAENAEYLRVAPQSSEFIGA

For `CCc1cc(Nc2ncc(Br)c(Nc3ccc4nccnc4c3NS(C)(=O)=O)n2)c(OC)cc1N1CCC(N2CCN(C(=O)C3CCN(c4ccc5c(c4)CN(C4CCC(=O)NC4=O)C5=O)CC3)CC2)CC1` (stereo not drawn) [Compound 10, N-(6-((5-bromo-2-((4-(4-(4-(1-(2-(2,6-dioxopiperidin-3-yl)-1-oxoisoindolin-5-yl)piperidine-4-carbonyl)piperazin-1-yl)piperidin-1-yl)-5-ethyl-2-methoxyphenyl)amino)pyrimidin-4-yl)amino)quinoxalin-5-yl)methanesulfonamide], the figures for the DC50 (at A431 (EGFR_WT); in assay [1]; in assay [2]) were above 1000 nM, 1.21 nM and 20 nM, respectively. Besides, the GI50 in the assay with BaF3_ASV (setting [3]) is 72.7 nM; in the assay with A431 it was above 1000 nM; with BaF3_DTC it was 9.6 nM.

With `CCc1cc(Nc2ncc(Br)c(Nc3ccc4nccnc4c3NS(C)(=O)=O)n2)c(OC)cc1N1CCC(N2CCN(c3ccc4c(c3)CN([C@H]3CCC(=O)NC3=O)C4=O)CC2)CC1` [Compound 38, (S)-N-(6-((5-bromo-2-((4-(4-(4-(2-(2,6-dioxopiperidin-3-yl)-1-oxoisoindolin-5-yl)piperazin-1-yl)piperidin-1-yl)-5-ethyl-2-methoxyphenyl)amino)pyrimidin-4-yl)amino)quinoxalin-5~yl)methanesulfonamide], the DC50 is above 1000 nM at A431 (EGFR_WT), 4.2 nM in assay [1] and 35.1 nM in assay [2]. In addition, the results for the GI50 with BaF3_ASV (setting [3]), in the assay on A431 and in the assay with BaF3_DTC were 90.3 nM, above 1000 nM and 9.14 nM, respectively.

For the compound `CCc1cc(Nc2ncc(Br)c(Nc3ccc4nccnc4c3NS(C)(=O)=O)n2)c(OC)cc1N1CCC(N2CCC(C(=O)N3CCN(c4ccc5c(c4)CN([C@H]4CCC(=O)NC4=O)C5=O)CC3)CC2)CC1` [Compound 41, (S)-N-(6-((5-bromo-2-((4-(4-(4-(2-(2,6-dioxopiperidin-3-yl)-1-oxoisoindolin-5-yl)piperazine-1-carbonyl)-[1,4′-bipiperidin]-1′-yl)-5-ethyl-2-methoxyphenyl)amino)pyrimidin-4-yl)amino)quinoxalin-5-yl)methanesulfonamide], the DC50 on A431 (EGFR_WT) is above 1000 nM; in assay [1] it was above 100 nM; in assay [2], 335 nM. In addition, the GI50 is 52.7 nM with BaF3_ASV (setting [3]), above 1000 nM with A431 and 123 nM in the assay with BaF3_DTC.

With `CCc1cc(Nc2ncc(Br)c(Nc3ccc4nccnc4c3NS(C)(=O)=O)n2)c(OC)cc1N1CCC(N2CCN(C3CC4(CCN(c5ccc6c(c5)CN(C5CCC(=O)NC5=O)C6=O)CC4)C3)CC2)CC1` (stereo not drawn) [Compound 48, N-(6-((5-bromo-2-((4-(4-(4-(7-(2-(2,6-dioxopiperidin-3-yl)-1-oxoisoindolin-5-yl)-7-azaspiro[3.5]nonan-2-yl)piperazin-1-yl)piperidin-1-yl)-5-ethyl-2-methoxyphenyl)amino)pyrimidin-4-yl)amino)quinoxalin-5-yl)methanesulfonamide], the figures for the DC50 (on A431 (EGFR_WT); in assay [1]; in assay [2]) were above 1000 nM, 4.26 nM and 23.7 nM, respectively. For the same compound, the GI50 with BaF3_ASV (setting [3]) is 36.8 nM; with A431, above 1000 nM; in the assay on BaF3_DTC it was 6.04 nM.

For `CCc1cc(Nc2ncc(Br)c(Nc3ccc4nccnc4c3NS(C)(=O)=O)n2)c(OC)cc1N1CCC(N2CCN(C3CCN(c4ccc5c(c4)CN(C4CCC(=O)NC4=O)C5=O)CC3)CC2)CC1` (stereo not drawn) [Compound 49, N-(6-((5-bromo-2-((4-(4-(4-(1-(2-(2,6-dioxopiperidin-3-yl)-1-oxoisoindolin-5-yl)piperidin-4-yl)piperazin-1-yl)piperidin-1-yl)-5-ethyl-2-methoxyphenyl)amino)pyrimidin-4-yl)amino)quinoxalin-5-yl)methanesulfonamide], the DC50 at A431 (EGFR_WT) is above 1000 nM; in assay [1], 2.36 nM; in assay [2], 19.7 nM. Besides, the GI50 with BaF3_ASV (setting [3]) is 32.7 nM; in the assay on A431, at least 1000 nM; in the assay on BaF3_DTC, 4.43 nM.

Consider `CCc1cc(Nc2ncc(Br)c(Nc3ccc4nccnc4c3NS(C)(=O)=O)n2)c(OC)cc1N1CCC(N2CC3(CCN(c4ccc5c(c4)CN(C4CCC(=O)NC4=O)C5=O)CC3)C2)CC1` (stereo not drawn) [Compound 57, N-(6-((5-bromo-2-((4-(4-(7-(2-(2,6-dioxopiperidin-3-yl)-1~oxoisoindolin-5-yl)-2,7-diazaspiro[3.5]nonan-2-yl)piperidin-1-yl)-5-ethyl-2-methoxyphenyl)amino)pyrimidin-4-yl)amino)quinoxalin-5-yl)methanesulfonamide], for which the figures for the DC50 (on A431 (EGFR_WT); in assay [1]; in assay [2]) were above 1000 nM, 4.73 nM and 44.5 nM, respectively. In addition, the GI50 with BaF3_ASV (setting [3]) was found to be 51.5 nM; in the assay on A431 it was 360 nM; with BaF3_DTC, 5.89 nM.

`CCc1cc(Nc2ncc(Br)c(Nc3ccc4nccnc4c3NS(C)(=O)=O)n2)c(OC)cc1N1CCC(N2CCN(CCc3cc(F)c(C4CCC(=O)NC4=O)c(F)c3)CC2)CC1` (stereo not drawn) [Compound 71, N-(6-((5-bromo-2-((4-(4-(4-(4-(2,6-dioxopiperidin-3-yl)-3,5~difluorophenethyl)piperazin-1-yl)piperidin-1-yl)-5-ethyl-2-methoxyphenyl)amino)pyrimidin-4-yl)amino)quinoxalin-5-yl)methanesulfonamide]: the DC50 on A431 (EGFR_WT) is above 1000 nM; in assay [1], 3.51 nM; in assay [2], 55.1 nM. Moreover, the GI50 in the assay with BaF3_ASV (setting [3]) is 131 nM; with A431, above 3000 nM; in the assay on BaF3_DTC, 5.41 nM.

As to `CCc1cc(Nc2ncc(Br)c(Nc3ccc4nccnc4c3NS(C)(=O)=O)n2)c(OC)cc1N1CCC(N2CCN(CCc3cccc4c3oc(=O)n4C3CCC(=O)NC3=O)CC2)CC1` (stereo not drawn) [Compound 77, N-(6-((5-bromo-2-((4-(4-(4-(2-(3-(2,6-dioxopiperidin-3-yl)-2-oxo-2,3-dihydrobenzo[d]oxazol-7-yl)ethyl)piperazin-1-yl)piperidin-1-yl)-5-ethyl-2-methoxyphenyl)amino)pyrimidin-4-yl)amino)quinoxalin-5-yl)methanesulfonamide], the DC50 at A431 (EGFR_WT) is above 1000 nM; in assay [1], 2.7 nM; in assay [2] it was above 1000 nM. Moreover, the GI50 in the assay on BaF3_ASV (read-out: BaF3_ASV GI50 (nM)) was 131 nM; in the assay on A431, above 3000 nM; in the assay with BaF3_DTC, 5.39 nM.

As for `CCc1cc(Nc2ncc(Br)c(Nc3ccc4nccnc4c3NS(C)(=O)=O)n2)c(OC)cc1N1CCC(N2CC[C@@H](CN3CCN(c4ccc5c(c4)CN([C@H]4CCC(=O)NC4=O)C5=O)CC3)C2)CC1` [Compound 92], the figures for the DC50 (at A431 (EGFR_WT); in assay [1]; in assay [2]) were above 1000 nM, 3.97 nM and 24.5 nM, respectively. The results for the concentration for 50% growth inhibition (GI50) in the assay with BaF3_ASV (setting [3]), in the assay on A431 and in the assay on BaF3_DTC were 92.9 nM, above 1000 nM and 14.6 nM, respectively.
